In PubChem BioAssay AID1963870 (Molecular Pharmacology Branch, DTP, NCI, 2024):

System: 292921-168-R-J2-PDC KRAS tumor spheroid viability
Experiment: Anticancer human tumor 292921-168-R-J2-PDC patient-derived pancreatic carcinoma cell line growth inhibition [KRAS2]
Conditions: spheroids with HUVEC and MSC; for IC50: curve of first compound; for viability, T/C: stronger effect = lower value
Source text: Multicellular complex tumor spheroid response to RAS pathway inhibitors in combination with a targeted agents in patient-derived cell lines with oncogenic KRAS variants from multiple cancer types
A high-throughput screen of multi-cell type tumor spheroids was designed to identify active combinations of targeted small molecules and KRAS pathway inhibitors. Complex spheroids include a stromal component modeled by human endothelial cells (HUVEC) and fibroblasts modeled by human mesenchymal stem cells (MSCs). The concentration ranges selected for each drug and investigational agent were based upon clinically achievable concentrations if the clinical Cmax of the agent was known.
Compounds. The drugs and investigational agents: BI-3406 (NSC825286), BAY-293 (NSC824723), batoprotafib (TNO155; NSC825523), sotorasib (AMG 510; NSC818433), MRTX1257 (NSC819558), elimusertib (BAY 1895344; NSC800525), molibresib (GSK525762; NSC774829), temuterkib (LY3214996; NSC803410), venetoclax (NSC766270), alisertib (NSC759677), olaparib (NSC753686), talazoparib (NSC767125), erdafitinib (NSC781556), ipatasertib (NSC767898), cabozantinib (NSC761068), nintedanib (NSC756659), abemaciclib (NSC768073), docetaxel (NSC628503), trametinib (NSC758246), and sapanisertib (NSC764658) were obtained from the National Cancer Institute (NCI) Developmental Therapeutics Program Chemical Repository. The FDA-approved anticancer drug set is available from the Developmental Therapeutics Program. […] The stock solutions were prepared in dimethyl sulfoxide (DMSO, Sigma-Aldrich, St. Louis, MO, cat. D2650) at 800-fold the tested concentration and stored at -70 degrees C prior to their use. All drugs and investigational agents were tested over a range starting from a high concentration at or near the clinical Cmax and decreasing in half-log increments. If the clinical Cmax for an agent had not been determined, the highest concentration tested was 10 microM.
Cell Culture. All cells were maintained in an incubator at 37 degrees C and 5% CO2 with 95% humidity. The PDC lines were cultured according to standard operating procedures established by the NCI PDMR (https://pdmr.cancer.gov/sops/default.htm). Briefly, all PDCs were thawed and cultured in Matrigel-coated flasks prepared with a working solution of 1X Ham's F-12 nutrient mix, without supplementation (Invitrogen, Waltham, MA, cat. 11765054), 100 U/mL penicillin-streptomycin (Invitrogen, cat. 15140122), and 2.5% Matrigel (Corning Inc., Corning, NY, cat. 354248) for the first three passages. All PDCs were cultured in complete DMEM/F-12 media containing advanced DMEM/F-12 (Invitrogen, cat. 12634028), 4.9% defined fetal bovine serum, heat inactivated (HyClone Laboratories Inc., Logan, UT, cat. SH30070.03HI), 389 ng/mL hydrocortisone (Sigma-Aldrich, cat. H4001), 9.7 ng/mL human EGF recombinant protein (Invitrogen, cat. PHG0313), 23.4 microg/mL adenine (Sigma-Aldrich, cat. A2786), 97.3 U/mL penicillin-streptomycin (Invitrogen, cat. 15140122), 1.9 mM L-glutamine (Invitrogen, cat. 25030081), and 9.7 microM Y-27632 dihydrochloride (Tocris Bioscience, Bristol, United Kingdom, cat. 1254). The PDCs were cultured in complete DMEM/F12 media without 9.7 microM Y-27632 dihydrochloride for at least two passages prior to the screen. The established cell line HOP-62 was cultured in RPMI 1640 medium, HEPES (Invitrogen, cat. 22400105) with 10% defined fetal bovine serum (HyClone Laboratories Inc., cat. SH30070.03) and 2 mM L-glutamine (Invitrogen, cat. 25030081). The pooled donor HUVEC were cultured in endothelial cell growth medium 2 (PromoCell, Heidelberg, Germany, cat. C-22011) and the hMSC were cultured in mesenchymal stem cell growth medium 2 (PromoCell, cat. C-28009). For all experiments, HUVEC and hMSC were used at passages </=5, while the malignant cell lines were used at passages </=15. […]

[1] = second compound 0.1 µM, first compound 0.01 µM
[2] = second compound 0.1 µM, first compound 0.0316 µM
[3] = second compound 0.1 µM, first compound 0.1 µM
[4] = second compound 0.316 µM, first compound 0.01 µM
[5] = second compound 0.316 µM, first compound 0.0316 µM
[6] = second compound 0.316 µM, first compound 0.1 µM
[7] = second compound 1 µM, first compound 0.01 µM
[8] = second compound 1 µM, first compound 0.0316 µM
[9] = second compound 1 µM, first compound 0.1 µM
[10] = second compound 3.16 µM, first compound 0.01 µM
[11] = second compound 3.16 µM, first compound 0.0316 µM
[12] = second compound 3.16 µM, first compound 0.1 µM
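Note: drug exposure lasted seven days after spheroids formed for three days.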
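Throughout, for viability, T/C: percent of DMSO vehicle control viability which is 100%.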

## CC(C)n1nc(-c2ccc3oc(N)nc3c2)c2c(N)ncnc21 + C=CC(=O)N1CCN(c2nc(OCC3CCCN3C)nc3c2CCN(c2cccc4cccc(C)c24)C3)CC1CC#N
Second compound 0.0316 µM
  IC50: 2.49 nM
Second compound 0.1 µM
  IC50: 2.84 nM
Second compound 0.316 µM
  IC50: 1.07 nM
Second compound 1 µM
  IC50: < 0.316 nM
Second compound 3.16 µM
  IC50: < 0.316 nM
Second compound 0.0316 µM, first compound 0.000316 µM
  viability, T/C: 78.8%
Second compound 0.0316 µM, first compound 0.001 µM
  viability, T/C: 62.7%
Second compound 0.0316 µM, first compound 0.00316 µM
  viability, T/C: 48.3%
Second compound 0.0316 µM, first compound 0.01 µM
  viability, T/C: 30.8%
Second compound 0.0316 µM, first compound 0.0316 µM
  viability, T/C: 25.3%
Second compound 0.0316 µM, first compound 0.1 µM
  viability, T/C: 21.1%
Second compound 0.1 µM, first compound 0.000316 µM
  viability, T/C: 83.3%
Second compound 0.1 µM, first compound 0.001 µM
  viability, T/C: 70.8%
Second compound 0.1 µM, first compound 0.00316 µM
  viability, T/C: 47.3%
[1]
  viability, T/C: 31%
[2]
  viability, T/C: 21.4%
[3]
  viability, T/C: 20.9%
Second compound 0.316 µM, first compound 0.000316 µM
  viability, T/C: 70.2%
Second compound 0.316 µM, first compound 0.001 µM
  viability, T/C: 50.5%
Second compound 0.316 µM, first compound 0.00316 µM
  viability, T/C: 36.9%
[4]
  viability, T/C: 28.6%
[5]
  viability, T/C: 21.6%
[6]
  viability, T/C: 18.5%
Second compound 1 µM, first compound 0.000316 µM
  viability, T/C: 30.9%
Second compound 1 µM, first compound 0.001 µM
  viability, T/C: 25.5%
Second compound 1 µM, first compound 0.00316 µM
  viability, T/C: 23.8%
[7]
  viability, T/C: 17.8%
[8]
  viability, T/C: 15.7%
[9]
  viability, T/C: 13.8%
Second compound 3.16 µM, first compound 0.000316 µM
  viability, T/C: 1.12%
Second compound 3.16 µM, first compound 0.001 µM
  viability, T/C: 0.57%
Second compound 3.16 µM, first compound 0.00316 µM
  viability, T/C: 0.82%
[10]
  viability, T/C: 0.33%
[11]
  viability, T/C: 0.47%
[12]
  viability, T/C: 0.73%

## CC(=O)OC12COC1CC(O)C1(C)C(=O)C(O)C3=C(C)C(OC(=O)C(O)C(NC(=O)OC(C)(C)C)c4ccccc4)CC(O)(C(OC(=O)c4ccccc4)C21)C3(C)C (stereo not given) + CC1OCC2(CCN(c3cnc(Sc4ccnc(N)c4Cl)c(N)n3)CC2)C1N
Second compound 0.1 µM
  IC50: < 10 nM
Second compound 0.316 µM
  IC50: < 10 nM
Second compound 1 µM
  IC50: < 10 nM
Second compound 3.16 µM
  IC50: < 10 nM
Second compound 10 µM
  IC50: < 10 nM
[1]
  viability, T/C: 14.3%
[2]
  viability, T/C: 14.6%
[3]
  viability, T/C: 12.2%
Second compound 0.1 µM, first compound 0.316 µM
  viability, T/C: 12.4%
Second compound 0.1 µM, first compound 1 µM
  viability, T/C: 13.6%
Second compound 0.1 µM, first compound 3.16 µM
  viability, T/C: 16.8%
[4]
  viability, T/C: 14.6%
[5]
  viability, T/C: 11.3%
[6]
  viability, T/C: 10.6%
Second compound 0.316 µM, first compound 0.316 µM
  viability, T/C: 10.7%
Second compound 0.316 µM, first compound 1 µM
  viability, T/C: 12.2%
Second compound 0.316 µM, first compound 3.16 µM
  viability, T/C: 13.9%
[7]
  viability, T/C: 16.9%
[8]
  viability, T/C: 17.1%
[9]
  viability, T/C: 13.4%
Second compound 1 µM, first compound 0.316 µM
  viability, T/C: 13.9%
Second compound 1 µM, first compound 1 µM
  viability, T/C: 14.2%
Second compound 1 µM, first compound 3.16 µM
  viability, T/C: 22.1%
[10]
  viability, T/C: 13.1%
[11]
  viability, T/C: 11.6%
[12]
  viability, T/C: 10.9%
Second compound 3.16 µM, first compound 0.316 µM
  viability, T/C: 10.4%
Second compound 3.16 µM, first compound 1 µM
  viability, T/C: 13.2%
Second compound 3.16 µM, first compound 3.16 µM
  viability, T/C: 13.8%
Second compound 10 µM, first compound 0.01 µM
  viability, T/C: 13.7%
Second compound 10 µM, first compound 0.0316 µM
  viability, T/C: 11.8%
Second compound 10 µM, first compound 0.1 µM
  viability, T/C: 11.8%
Second compound 10 µM, first compound 0.316 µM
  viability, T/C: 11%
Second compound 10 µM, first compound 1 µM
  viability, T/C: 13.4%
Second compound 10 µM, first compound 3.16 µM
  viability, T/C: 13.7%
